Values belong to the compound of their own block, whether it stands above or below them.
Experiments:
[1] = test system: prostate of testosterone-induced prostatic hyperplasia rat; experiment: Efficacy on prostate in testosterone-induced prostatic hyperplasia rat; type: in vivo; details: testosterone 3 mg/kg/day plus test substance 0.1 or 1 mg/kg body weight/day, subcutaneous osmotic pump, 28 days, vs testosterone alone
Source text: 12-week-old male Slc:SD (SPF) rats were obtained from Japan SLC, Inc. An acclimatization period was established for 1 week after receipt. During the acclimatization period, the rats were allowed to freely ingest a powder diet (AIN-93G).
2) Implantation of Osmotic Pump
(§1) After body weight measurement, back hair was shaved under isoflurane (AbbVie GK) inhalation anesthesia, and carprofen was subcutaneously administered to the rats. Then, an incision of approximately 1 cm at the maximum was made on the cranial side in the back. An osmotic minipump Alzet (Muromachi Kikai Co., Ltd.) containing testosterone and compound 17-F or finasteride (Sigma-Aldrich Co. LLC) was subcutaneously implanted. From this osmotic pump, testosterone (3 mg/kg body weight/day) (Sigma-Aldrich Co. LLC) and compound 17-F (0.1 mg/body weight/day or 1 mg/kg body weight/day) or finasteride (0.1 mg/kg body weight/day or 1 mg/kg body weight/day) were continuously administered for 28 days. Since the implantation of the osmotic pump, the rats were allowed to freely ingest customized feed AIN-93G (Oriental Yeast Co., Ltd.) free from components derived from soybeans.
3) Photographing of Skin and Harvesting of Prostate
After a lapse of 28 days, body weights were measured, and subsequently, the rats were euthanized by blood letting under isoflurane anesthesia. Back hair was shaved, followed by photographing. Then, the abdominal cavity was opened to harvest the prostate on the ventral side. Wet weights were measured.

[2] = test system: back skin browning induced by testosterone; experiment: Effect on sebum secretion (back skin browning) in testosterone-treated rat; type: in vivo; details: testosterone 3 mg/kg/day plus test substance, subcutaneous osmotic pump, 28 days
Source text: as §1, with “12-week-old male Slc:SD (SPF) rats were obtained from Japan SLC, Inc. An acclimatization period was established for 1 week after receipt. During the acclimatization period, the rats were allowed to freely ingest a powder diet (AIN-93G). 2) Implantation of Osmotic Pump After” for “After”, “soybeans. 3) Photographing of Skin and Harvesting of Prostate After a lapse of 28 days, body weights were measured, and subsequently, the rats were euthanized by blood letting under isoflurane anesthesia. […] Wet weights were measured. […]” for “soybeans.”

[3] = test system: uterus of ovariectomized rat; experiment: Uterus weight in ovariectomized (OVX) rat; type: in vivo; details: 4 μg/kg/day subcutaneous, vs negative solvent group
Method: 8-week-old female Crl:CD (SD) rats were obtained from Charles River Laboratories Japan, Inc. and individually identified by the ear punching method on the receipt date. Then, an acclimatization period was established for 1 week. The animals were raised in a rearing room under a set environment involving a temperature of 22±3° C., a humidity of 50±20%, air ventilation from 13 to 17 times/hour, and a lighting time from 8:00 to 20:00. During the acclimatization period, the rats were allowed to freely ingest solid feed CRF-1 (Oriental Yeast Co., Ltd.). Since the feeding with CRF-1, the rats were allowed to freely ingest customized feed AIN-93G (Oriental Yeast Co., Ltd.) free from components derived from soybeans.
On the end date of acclimatization and the following day, the flank cavity was opened under isoflurane anesthesia to harvest the right and left ovaries including fallopian tubes. Other non-OVX rats were subjected to only opening and suture (sham surgery). Immediately thereafter, an antibiotic was subcutaneously administered at a dose of 100 μl/animal. After the surgery, the sham surgery or OVX animals were given customized feed and raised for approximately 1 week.
From 1.5 hours before a shift from the light phase to the dark phase (18:30), a negative solvent (DMSO) or a test substance was subcutaneously administered at a dose of 0.5 ml/kg to the back of the neck according to Table 3 described below using a syringe and an injection needle.
After the completion of all procedures of measurement and analysis, the rats were euthanized by blood letting under isoflurane anesthesia, and the uterus was harvested. Wet weights were measured.
Skin temperatures differed largely among individuals, and the Smirnov-Grubbs test was conducted in order to exclude outliers beforehand. Results of measuring tail skin temperatures and results of measuring uterus weights were statistically analyzed by testing using the Dunnett's test.

melting point: 74 to 76 °C
Compound: Oc1ccc(CC(c2ccc(O)cc2)C2CCCCC2)cc1 (centres unmarked) [Compound 4, 4,4′-(1-cyclohexylethane-1,2-diyl)diphenol]

Compound: CC(C)(C)NC(=O)[C@H]1CC[C@H]2[C@@H]3CC[C@H]4NC(=O)C=C[C@]4(C)[C@H]3CC[C@]12C [finasteride, reference compound]
size of the prostate (visual, FIG. 1) [1]: Concentration-dependent decrease in the size of the prostate
weight of the prostate corrected with the body weight (FIG. 2) [1]: decreased to almost the same level as in the DMSO administration group
skin browning induced by testosterone (sebum secretion, FIG. 3) [2]: such an inhibitory effect was not confirmed

uterus wet weight (FIG. 6) [3]: significantly increased
Compound: C[C@]12CC[C@@H]3c4ccc(O)cc4CC[C@H]3[C@@H]1CC[C@@H]2O [E2, estradiol, reference compound]
